# Source: a melting point compilation (Tetko et al.; mined from patent text by program, amines drawn as free bases though some values may be those of a salt)
row,Structure (SMILES),melting point [°C]
1,CSc1ncnn1C[C@]1(c2ccc(F)cc2F)O[C@@H]1c1ccccc1F (relative stereo),65 to 68
2,O=[N+]([O-])c1cc2c(cc1[N+](=O)[O-])OC(CC(F)(F)F)(C(F)(F)F)O2,101 to 103
3,NS(=O)(=O)c1ccc(-c2ccccc2-c2ccc(F)cc2)cc1,187 to 188
4,CC12CC(=O)C3C(CCC4CC(O)CCC43C)C1CCC2C(=O)CSc1ccccn1 (configuration not stated),184
5,Cc1cc(Oc2ccc(C(F)(F)F)cc2Cl)cc(Cl)n1,75
6,O=C(CCCN1CC=C(c2cccc3[nH]ccc23)CC1)c1ccc(F)cc1,155
7,O=C(O)CCCNC(=O)CCCCC1CCSS1 (configuration not stated),56 to 58
8,COC(=O)/C=C/C=C(\c1ccc(OC)cc1)c1ccccc1OC,99.5 to 102
9,CC(=O)OCC1OC(OCC(C)=CCN2C(=O)c3ccccc3C2=O)C(OC(C)=O)C(OC(C)=O)C1OC(C)=O (configuration not stated),104 to 105
10,COc1nnc2n1C=Cc1ccccc1C2c1ccccc1 (configuration not stated),183 to 184
11,CCOC=CC(=O)Nc1cccc(C(=O)O)c1,200 to 202
12,CC(C)(C)OC(=O)N1CCC(Oc2ccc(Cc3cc4cc(C#N)ccc4o3)cc2)CC1,144 to 146
13,CCOC(=O)c1c(N2CCN(C(=O)c3cccs3)CC2)c2cccnc2n(CC(=O)c2ccccc2)c1=O,115
14,O=c1oc2ccc(OC3CCCCO3)cc2s1 (configuration not stated),61 to 63
15,CC(C)(C)c1ccc2c(c1)C(=O)NC2,142 to 144
16,Cn1ncc2[nH]c3ccc(F)cc3c(=O)c21,301
17,COc1ccc(S(=O)(=O)N(CC(N)=O)c2ccc(Cl)cc2C(O)c2c(Cl)cccc2Cl)cc1OC (configuration not stated),128
18,O=C(O)c1cn(C2COC2)c2c(F)c(F)c(F)cc2c1=O,203 to 206
19,Cn1ncnc1COc1nc2c(-c3cc(F)ccc3F)nncn2c1-c1ccccc1,200
20,Cc1nnc2ccc(-c3ccc(C(C)(C)C)cc3)nn12,142 to 145

row,Structure (SMILES),melting point [°C]
1,OC1(c2cccnc2N2CCCC2)CCN(CC23CC(c4ccccc42)c2ccccc23)CC1,249 to 253
2,CC(=O)N1C(C(=O)c2cn(C(=O)OC(C)(C)C)c3ccccc23)CSC1c1cccnc1 (configuration not stated),141 to 143
3,O=C(O)CN1C(=O)C(NC(=O)C(Cc2ccccc2)SC(=O)c2ccccc2)CCc2ccccc21 (configuration not stated),170 to 171
4,CC(O)c1ccc2cc(OCc3ccccc3)ccc2c1 (configuration not stated),97 to 98
5,OCC1OC(n2c(Cl)nc3c(Br)c(Br)ccc32)C(O)C1O (configuration not stated),167 to 169
6,COc1ccc(-c2nc3ccc(OC(F)(F)F)cc3[nH]2)c(OC)c1,201 to 203
7,CCOC(=O)c1cc(CC#N)c(C)s1,55 to 57
8,COc1cc2c(cc1OC)C(c1cccc([N+](=O)[O-])c1)=NN=C(C)C2,196 to 198
9,CCCCC1(N2CCCC2)CC=C(c2[nH]c3ccccc3c2CCc2ccncc2)CC1 (configuration not stated),187 to 195
10,CC(Cc1cccc(NC(N)=O)c1)NC=O (configuration not stated),133 to 136
11,Nc1nc(N)nc(-c2cnccn2)n1,> 250
12,CC(C)CO/N=C(\C(=O)O)c1csc(NC(c2ccccc2)(c2ccccc2)c2ccccc2)n1,168 to 169
13,CON=CC1CCCN(OC(=O)c2ccccc2)C1 (configuration not stated),38 to 40
14,CCOc1cc2c(cc1OCC)[C@@H]1CN(C)CC[C@@H]1N=C2c1ccc(NS(=O)(=O)c2ccc(C)cc2)cc1,267 to 268
15,CCC(CC)Oc1cc(C)nc(Nc2c(C)cc(C)cc2C)c1C(=O)n1ccnc1,120 to 122
16,Cc1cc(-c2nnn(C)n2)cc(C)c1OCCCn1cncn1,76 to 78
17,Fc1cc(F)c(-c2c(Cl)nc(-n3ccnc3)nc2Cl)c(F)c1,72 to 74
18,CCCn1cnc2c1c(=O)n(CCCCC(C)=O)c(=O)n2CC,81 to 82
19,CC(C)OC(=NC(=O)c1ccc(F)cc1)N1Cc2ccccc2-c2ccccc2C1,90 to 93
20,CCC(=O)OC1CC2(CCN(CCCC(=O)c3ccc(F)cc3)C2)c2ccc(C)cc21 (configuration not stated),153 to 155

row,Structure (SMILES),melting point [°C]
1,CCCCc1oc2ccccc2c1-c1ncc(-c2ccc3c(Br)c(OCc4ccc(C(=O)O)cc4)ccc3c2)o1,281 to 283
2,COc1cccc(CNC(CCCCCC(=O)O)C(C)C)c1 (configuration not stated),64 to 67
3,CCOc1ccccc1C(=N)N,78 to 84
4,O=C(O)c1ccc(=O)n(Cc2ccc(-c3ccccc3)cc2)c1,245 to 250
5,CC(c1cc(Cl)cc(Cl)c1O)c1cc(F)cc(Cc2cc(Cl)cc(Br)c2O)c1O (configuration not stated),171
6,O=C1C(C(c2cc(F)ccc2F)S(=O)(=O)c2ccc(Cl)cc2)CCCN1CCCO (configuration not stated),120 to 121
7,COC(=O)c1cc(NC(=O)OC(C)(C)C)c([N+](=O)[O-])cc1I,126
8,Cc1cc(Nc2ccc(C(C)(C)C)cc2)c2[nH]ncc2n1,258 to 262
9,CC(=C1SC(=O)NC1=O)c1ccc(OCCCOc2c(-c3ccc(F)cc3)n(C)c3ccccc3c2=O)c(Cl)c1,232 to 234
10,COc1cc(-c2nc3ccccc3n2Cc2cccc(Cl)c2)cc(OC)c1OC,83
11,CCCNS(=O)(=O)c1cc(C)c2cc(C(C)C)ccc(C)c1-2,60 to 62
12,CCCc1c(CSc2nnc(S)s2)ccc(C(C)=O)c1O,133 to 135
13,O=C1N[C@H](Cc2ccc(C(F)(F)F)cc2)[C@@H](c2ccc(F)cc2)O1 (racemic),83 to 84
14,Nc1ccccc1NC(=O)c1ccc(CNC(=O)c2[nH]c(-c3ccc(O)cc3)cc2-c2ccccc2)cc1,241 to 242
15,CNC(=O)[C@H](NC(=O)c1ccc(F)cc1C(F)(F)F)[C@@H](CN)c1ccccc1 (racemic),188
16,COc1cc(CCC(=O)C2=C(Cl)CCC2)cc(OC)c1OC,93
17,CCOC(=O)C(CO)NC(=O)C(CC(=O)O)NC(=O)CCNC(=O)c1ccc(C(=N)N)cc1 (configuration not stated),201 to 203
18,CCOC(=O)c1c(C(F)F)nc(C(F)(F)F)c(C(=O)OCC)c1Cl,35 to 40
19,CC(=O)C1=C(C#N)C(c2cccc(C#N)c2Br)c2c[nH]nc2N1 (configuration not stated),> 230

# Other lines, results leading:
row,melting point [°C],Structure (SMILES)
1,140 to 143,CC(=O)Nc1c(C(=O)c2ccc(C)cc2)[nH]c2cc(Cl)ccc12
2,161 to 162,O=C(NS(=O)(=O)c1ccccc1)c1cccc(C[C@@H]2COc3ccc(OCc4nc5cc(F)ccc5s4)cc3[C@@H]2O)c1
3,135,CCOC(=O)/C=C(C)/C=C/C=C(\C)C1=Cc2cc(C)ccc2OC1
4,82 to 84,CS(=O)(=O)c1ccc(-c2cc(C(=O)CO[N+](=O)[O-])nn2-c2ccccn2)cc1
5,168 to 170,COc1cc(I)ccc1C(=O)Nc1ccc(OC)c(N2CCN(C)CC2)c1
6,205 to 208,O=C(O)c1ccc2c([N+](=O)[O-])cc3c(c2c1)C(CCl)CN3 (configuration not stated)
7,160 to 161,CCOC(=O)c1sc2ccc(O)cc2c1Cl
8,250,Cc1ccc(-c2ccc(C)c(C(N)=O)c2N)cc1
9,228 to 232,Cc1c(C(=O)N2C[C@@H](C)N[C@@H](C)C2)c2ccccc2n2cnc(C(=O)OC(C)(C)C)c12
10,118 to 120,Cc1cccc(Nc2ccccc2[N+](=O)[O-])c1C
11,240 to 242,C[C@@H]1S[C@@H](C(=O)Nc2ccc(CN3C(=O)COC3=O)cc2)Cc2cc3c(cc2C1=O)OCO3
12,131 to 133,OC(c1cccnc1)c1c[nH]c2ccc(F)cc12 (configuration not stated)
13,175 to 178,COc1cc(OC)cc(-c2ncoc2-c2ccc3c(c2)NCCO3)c1
14,75 to 78,O=Cn1cc(Cl)c(-c2ccccc2C(F)(F)F)c1
15,123 to 126,Cc1cc(C(=O)C=C(c2cc(Cl)cc(Cl)c2)C(F)(F)F)ccc1C(=O)O
16,248 to 249,CN(c1cccc2cc(C3=NCC(C)(C(N)=O)S3)[nH]c12)S(=O)(=O)c1cccs1 (configuration not stated)
17,154 to 156,CCc1cc(-c2ccccc2OC)n2nc(Nc3ccc(N4CCN(C)CC4)cc3)ncc12
18,83 to 90,CCCN(CCCNc1ncc(Cc2ccc(C)nc2)c(=O)[nH]1)c1ccccn1
19,232 to 233,CN1CCc2c([nH]c3ccc(NS(=O)(=O)c4c(Cl)nc5sccn45)cc23)C1

row,melting point [°C],Structure (SMILES)
1,151,O=C(N[C@H](c1ccccc1)[C@@H](O)CO)c1cc2ccccc2[nH]1 (racemic)
2,246 to 248,COc1cc2c(cc1Nc1ncc(Cl)c(Nc3ccc(N4CCOCC4)cc3OC)n1)C(C)(C)CCC(=O)N2
3,223,O=C(Nc1ncccn1)c1c(Cl)ccc2c1OCCO2
4,93.5 to 95.5,Cc1c(OCc2ccc([Si](C)(C)C)cc2)cnn(C(C)(C)C)c1=O
5,192 to 194,NS(=O)(=O)c1cc2c(Cl)nccc2o1
6,62 to 63,O=C1CCCOc2ccc(OCc3ccccc3)cc21
7,69,CCSc1ccc2cc(C(C)=O)ccc2c1
8,116 to 117,CCNC(=O)C1OC(n2cnc3c(NNC(=O)c4ccccc4)ncnc32)C2OC(C)(C)OC12 (configuration not stated)
9,210 to 212,CC(C)Nc1cccnc1N1CCN(C(=O)c2cc3cc(NS(=O)(=O)N4CCOCC4)ccc3[nH]2)CC1
10,98.5 to 99.5,Cc1cccc2c1SC1(CCOC1=O)C2=O (configuration not stated)
11,150 to 152,O=C(Nc1ccccc1)c1c(C(=S)Nc2ccccc2)cccc1-c1ccccc1
12,184 to 189,COc1ccc2c(-c3cccc(F)c3F)noc2c1Cl
13,212 to 213,Cc1ncc2cc(-c3c(Cl)cccc3Cl)c(NS(C)(=O)=O)nc2n1
14,166 to 168,CCCCCCn1c(=O)[nH]c2ncccc2c1=O
15,175,CCOC(=O)N1CCC(N=c2oc3ncnc(N)c3n2Cc2ccc(F)cc2)CC1
16,182 to 184,CCc1nn(C2CCCC2)c2cc(C(=O)NCC(=O)O)ccc12
17,125 to 132,COc1cccc2c(CCCN(CC3CC3)C3COc4c(F)ccc(C(N)=O)c4C3)coc12 (configuration not stated)
18,138 to 140,CC(C)n1nc(-c2sc(NC(=O)N3CCCCC3)nc2-c2ccccc2)ccc1=O
19,73 to 76,O=C(CC1CCc2ccccc2C1=O)c1ccccc1 (configuration not stated)
